These results are taken from ChEMBL document CHEMBL5214988, “Design, Synthesis, and Biological Evaluation of 5-Formyl-pyrrolo[3,2-b]pyridine-3-carboxamides as New Selective, Potent, and Reversible-Covalent FGFR4 Inhibitors” (J Med Chem, 2022).

The nature of series [1]: MRT (0 to t) in ICR mouse at 10 mg/kg, po measured upto 24 hrs by LC-MS/MS analysis. In kind it is ADME, organism-based. Conditions: in vivo.
Series [2] in a line: Half life in ICR mouse at 10 mg/kg, po measured upto 24 hrs by LC-MS/MS analysis. In kind it is ADME, organism-based. Conditions: in vivo.
A short description of series [3]: AUC (0 to t) in ICR mouse at 2 mg/kg, iv measured upto 24 hrs by LC-MS/MS analysis. It is filed as ADME, organism-based. Conditions: in vivo. Set-up: time < 24 hrs, dose 2 mg/kg, route iv.
Series [4] is described as follows: Observed clearance in ICR mouse at 2 mg/kg, iv measured upto 24 hrs by LC-MS/MS analysis. In kind it is ADME, organism-based. To be noted: in vivo.
Series [5] is described as follows: Cmax in ICR mouse at 2 mg/kg, iv measured upto 24 hrs by LC-MS/MS analysis. In kind it is ADME, organism-based. More on the design: time < 24 hrs, dose 2 mg/kg, route iv. Conditions: in vivo.
A short description of series [6]: Tmax in ICR mouse at 10 mg/kg, po measured upto 24 hrs by LC-MS/MS analysis. In kind it is ADME, organism-based. Conditions: in vivo.
A short description of series [7]: AUC (0 to t) in ICR mouse at 10 mg/kg, po measured upto 24 hrs by LC-MS/MS analysis. It is filed as ADME, organism-based. Set-up: dose 10 mg/kg, time < 24 hrs, route po. To be noted: in vivo.
A short description of series [8]: MRT (0 to t) in ICR mouse at 2 mg/kg, iv measured upto 24 hrs by LC-MS/MS analysis. In kind it is ADME, organism-based. Conditions: in vivo.
A short description of series [9]: Oral bioavailability in ICR mouse at 10 mg/kg measured upto 24 hrs by LC-MS/MS analysis. In kind it is ADME, organism-based. To be noted: in vivo.
Series [10] in a line: Metabolic stability in mouse liver microsomes assessed as half life incubated upto 60 mins in presence of NADPH by LC-MS/MS analysis. It is filed as ADME, Microsome. Conditions: 1 h.
A short description of series [11]: AUC (0 to infinity) in ICR mouse at 10 mg/kg, po measured upto 24 hrs by LC-MS/MS analysis. More on the design: time < 24 hrs, dose 10 mg/kg, route po. Conditions: in vivo. It is filed as ADME, organism-based.
Series [12] is described as follows: Tmax in ICR mouse at 2 mg/kg, iv measured upto 24 hrs by LC-MS/MS analysis. To be noted: in vivo. It is filed as ADME, organism-based.
Series [13] is described as follows: AUC (0 to infinity) in ICR mouse at 2 mg/kg, iv measured upto 24 hrs by LC-MS/MS analysis. It is filed as ADME, organism-based. More on the design: time < 24 hrs, dose 2 mg/kg, route iv. To be noted: in vivo.
Series [14] can be described thus: Cmax in ICR mouse at 10 mg/kg, po measured upto 24 hrs by LC-MS/MS analysis. In kind it is ADME, organism-based. More on the design: dose 10 mg/kg, time < 24 hrs, route po. Conditions: in vivo.
The nature of series [15]: Half life in ICR mouse at 2 mg/kg, iv measured upto 24 hrs by LC-MS/MS analysis. Conditions: in vivo. In kind it is ADME, organism-based.

A word on the MRT last: it is the average time that molecules of a dose stay in the body. The term half-life denotes the time in which the quantity being followed falls by half. Read a high half-life as slow loss. The term AUC(0-t) denotes exposure summed from dosing to a finite time, without extrapolation to infinity. As a reminder, the clearance is the rate of elimination divided by the concentration. High values mean efficient removal, low ones inefficient removal. What is called Cmax is the highest concentration seen after dosing. As usually defined, the Tmax is the time at which the peak concentration occurs. As usually defined, the bioavailability is dose-corrected exposure relative to a reference, in per cent. Low readings indicate little systemic uptake, high ones much systemic uptake. Broadly, the AUC(0-inf) is total exposure, with the tail of the curve extrapolated. Read a high AUC(0-inf) as more exposure. As to `C[C@@H](Oc1cc(NC(=O)c2cn(CCN3CCOCC3)c3cc(Br)c(C=O)nc23)ncc1C#N)c1c(Cl)cncc1Cl`, the MRT last at 24 h was found to be 104 min in [1] and 29.4 min in series [8]. The half-life in series [2] is 196 min; in series [15], 45.6 min. Also, the values for the AUC(0-t) at 24 h in series [3] and in [7] were 702 ng·h/mL and 29.5 ng·h/mL, respectively. Moreover, the clearance in series [4] was 49.7 mL/min/kg. Besides, the Cmax in [5] came to 1640 ng/mL; in series [14] it was 13.4 ng/mL. For the same molecule, the Tmax in series [6] was determined as 23.4 min; in series [12] it was 4.98 min. For the same molecule, the bioavailability in series [9] was determined as 1.1%. Further, the t1/2 in [10] was found to be 696 min. Moreover, the results for the AUC(0-inf) in series [11] and in [13] were 38.6 ng·h/mL and 704 ng·h/mL, respectively.
